Where two headings read alike, the source gives them in different places.
Legend:
[1] = system: HeLa human cervical tumor cells; assay: Proliferation Assay (HeLa+Paclitaxel); settings: read-out: Biological Assay 3.0: Proliferation Assay (HeLa + Paclitaxel):, 3 nM paclitaxel, 92 hours with test substance
Procedure: Proliferation Assay (HeLa+Paclitaxel):
Cultivated HeLa human cervical tumor cells (DSMZ ACC-57) were plated at a density of 3000 cells/well in a 96-well multititer plate in 200 μL of growth medium supplemented 10% fetal calf serum. After 24 hours, the cells of one plate (zero-point plate) were stained with crystal violet (see below). The medium of the other plates was supplemented with 3 nM of paclitaxel (Sigma-Aldrich) and the cells were incubated at 37° C. After 4 hours the test substances were added in various concentrations (0 μM, as well as in the range of 0.001-10 μM; the final concentration of the solvent dimethyl sulfoxide was adjusted to 0.1%) using a Hewlett-Packard HP D300 Digital Dispenser. The cells were incubated for another 92 hours at 37° C. in the presence of test substances. Cell proliferation was determined by staining the cells with crystal violet: the cells were fixed by adding 20 μL/measuring point of an 11% glutaric aldehyde solution for 15 minutes at room temperature. After three washing cycles of the fixed cells with water, the plates were dried at room temperature. The cells were stained by adding 100 μL/measuring point of a 0.1% crystal violet solution (pH 3.0). After three washing cycles of the stained cells with water, the plates were dried at room temperature. The dye was dissolved by adding 100 μL/measuring point of a 10% acetic acid solution. Absorption was determined by photometry at a wavelength of 595 nm. The change of cell number, in percent, was calculated by normalization of the measured values to the absorption values of the zero-point plate (=0%) and the absorption of the untreated (0 μm) cells (=100%). The IC50 values were determined by means of a 4 parameter fit.

[2] = system: HeLa human cervical cancer cell line; assay: Proliferation assay (HeLa cell line)
Procedure: Cultivated tumor cells (cells were ordered from ATCC) were plated at a density of 3000 cells/well in a 96-well multititer plate in 200 μL of growth medium supplemented 10% fetal calf serum. After 24 hours, the cells of one plate (zero-point plate) were stained with crystal violet (see below), while the medium of the other plates was replaced by fresh culture medium (200 μL), to which the test substances were added in various concentrations (0 μM, as well as in the range of 0.001-10 μM; the final concentration of the solvent dimethyl sulfoxide was 0.5%). The cells were incubated for 4 days in the presence of test substances. Cell proliferation was determined by staining the cells with crystal violet: the cells were fixed by adding 20 μL/measuring point of an 11% glutaric aldehyde solution for 15 minutes at room temperature. After three washing cycles of the fixed cells with water, the plates were dried at room temperature. The cells were stained by adding 100 μL/measuring point of a 0.1% crystal violet solution (pH 3.0). After three washing cycles of the stained cells with water, the plates were dried at room temperature. The dye was dissolved by adding 100 μL/measuring point of a 10% acetic acid solution. Absorption was determined by photometry at a wavelength of 595 nm. The change of cell number, in percent, was calculated by normalization of the measured values to the absorption values of the zero-point plate (=0%) and the absorption of the untreated (0 μm) cells (=100%). The IC50 values were determined by means of a 4 parameter fit.

[3] = biological target: T1, catalytic domain of human Bub1 (amino acids 704-1085) (Homo sapiens, UniProt O43683); assay: Bub1 kinase assay (TR-FRET); assay type: biochemical
T1 construct: catalytic domain of human Bub1 (amino acids 704-1085); His6 (N); made in house; host or cells: Hi5 insect cells
T1 sequence (O43683 704-1085): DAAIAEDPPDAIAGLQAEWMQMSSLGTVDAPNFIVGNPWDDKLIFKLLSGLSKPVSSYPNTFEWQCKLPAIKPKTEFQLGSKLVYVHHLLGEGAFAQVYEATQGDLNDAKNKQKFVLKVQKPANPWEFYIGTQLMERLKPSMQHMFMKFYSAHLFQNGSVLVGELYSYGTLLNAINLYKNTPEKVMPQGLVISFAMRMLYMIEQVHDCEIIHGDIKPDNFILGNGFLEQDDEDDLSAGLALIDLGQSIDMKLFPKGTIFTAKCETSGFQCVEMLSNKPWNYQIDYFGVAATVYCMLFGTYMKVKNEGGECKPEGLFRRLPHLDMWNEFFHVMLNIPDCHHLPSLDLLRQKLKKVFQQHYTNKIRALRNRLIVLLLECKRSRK
Procedure: To this end, 100-fold concentrated compound solutions (in DMSO) were previously prepared by serial dilution (1:3.4) of 2 mM stocks in a clear low volume 384-well source microtiter plate (Greiner Bio-One, Frickenhausen, Germany), from which 50 nL of compounds were transferred into a black low volume test microtiter plate from the same supplier. […] The resulting mixture (5 μL final volume) was incubated at 22° C. during 60 min., and the reaction was stopped by the addition of 5 μL of an aqueous EDTA-solution (50 mM EDTA, in 100 mM HEPES pH 7.5 and 0.2% (w/v) bovine serum albumin) which also contained the TR-FRET detection reagents (0.2 μM streptavidin-XL665 [Cisbio Bioassays, Codolet, France] and 1 nM anti-phosho-Serine antibody [Merck Millipore, cat. #35-001] and 0.4 nM LANCE EU-W1024 labeled anti-mouse IgG antibody [Perkin-Elmer, product no. AD0077, alternatively a Terbium-cryptate-labeled anti-mouse IgG antibody from Cisbio Bioassays can be used]). The stopped reaction mixture was further incubated 1 h at 22° C. in order to allow the formation of complexes between peptides and detection reagents. Subsequently, the amount of product was evaluated by measurement of the resonance energy transfer from the Eu-chelate-antibody complex recognizing the Phosphoserine residue to the streptavidin-XL665 bound to the biotin moiety of the peptide. […] IC50 values were calculated by fitting the normalized inhibition data to a 4-parameter logistic equation (Minimum, Maximum, IC50, Hill; Y=Max+(Min−Max)/(1+(X/IC50)Hill)).

[4] = Homo sapiens, 96 h, read-out: Biological Assay 2: Proliferation assay (HeLa cell line) median IC50
[5] = 10 μM ATP, 1 μM peptide substrate, read-out: Biological Assay 1: Bub1 kinase assay median IC50
[6] = Homo sapiens, 96 h, read-out: Biological Assay 2: Proliferation assay (HeLa cell line) median IC50, HeLa, 4 days incubation, crystal violet

Compound | IC50 [1] | IC50 [2, 4] | IC50 [3, 5] | IC50 ([2]; read-out: Biological Assay 2: Proliferation assay (HeLa cell line) median IC50, 4 days incubation, crystal violet) | IC50 [2, 6] | IC50 [3]
CN1CCN(CCCOc2cnc(-c3nn(Cc4c(F)cc(OCC5CC5)cc4F)c4ccccc34)nc2Nc2ccncc2Cl)CC1 [Example 2-1-1, N-(3-chloropyridin-4-yl)-2-{1-[4-(cyclopropylmethoxy)-2,6-difluorobenzyl]-1H-indazol-3-yl}-5-[3-(4-methylpiperazin-1-yl)propoxy]pyrimidin-4-amine] | 69 nM | 1100 nM | 10 nM |  |  | 
Fc1cc(OCC2CC2)cc(F)c1Cn1nc(-c2ncc(OCCCN3CCOCC3)c(Nc3ccncc3Cl)n2)c2ccccc21 [Example 2-1-2, N-(3-chloropyridin-4-yl)-2-{1-[4-(cyclopropylmethoxy)-2,6-difluorobenzyl]-1H-indazol-3-yl}-5-[3-(morpholin-4-yl)propoxy]pyrimidin-4-amine] | 760 nM | 5800 nM | 50 nM |  |  | 
CCOc1cc(F)c(Cn2nc(-c3ncc(OCCCN4CCOCC4)c(Nc4ccnc(NC(C)=O)c4)n3)c3ccccc32)c(F)c1 [Example 2-1-3, N-[4-({2-[1-(4-ethoxy-2,6-difluorobenzyl)-1H-indazol-3-yl]-5-[3-(morpholin-4-yl)-propoxy]pyrimidin-4-yl}amino)pyridin-2-yl]acetamide] | 78 nM | 3400 nM | 6.8 nM |  |  | 
CCOc1cc(F)c(Cn2nc(-c3ncc(OCCCN4CCN(C)CC4)c(Nc4ccnc(NC(C)=O)c4)n3)c3ccccc32)c(F)c1 [Example 2-1-4, N-[4-({2-[1-(4-ethoxy-2,6-difluorobenzyl)-1H-indazol-3-yl]-5-[3-(4-methylpiperazin-1-yl)propoxy]pyrimidin-4-yl}amino)pyridin-2-yl]acetamide] | 160 nM | 2000 nM | 4.6 nM |  |  | 
CCOc1cc(F)c(Cn2nc(-c3ncc(OCCCN4CCN(CC(F)(F)F)CC4)c(Nc4ccnc(NC(C)=O)c4)n3)c3ccccc32)c(F)c1 [Example 2-1-5, N-{4-[(2-[1-(4-ethoxy-2,6-difluorobenzyl)-1H-indazol-3-yl]-5-{3-[4-(2,2,2-tri-fluoroethyl)piperazin-1-yl]propoxy}pyrimidin-4-yl)amino]pyridin-2-yl}acetamide] | 440 nM |  |  |  | > 10000 nM | 23 nM
CCOc1cc(F)c(Cn2nc(-c3ncc(OCCCCN4CC(F)(F)C4)c(Nc4ccncc4Cl)n3)c3ccccc32)c(F)c1 [Example 2-2-1, N-(3-chloropyridin-4-yl)-5-[4-(3,3-difluoroazetidin-1-yl)butoxy]-2-[1-(4-ethoxy-2,6-difluorobenzyl)-1H-indazol-3-yl]pyrimidin-4-amine] | 140 nM |  |  |  | 9000 nM | 19 nM
CCOc1cc(F)c(Cn2nc(-c3ncc(OCCCCN4CC(F)C4)c(Nc4cc(C)ncc4C)n3)c3ccccc32)c(F)c1 [Example 2-3-1, N-(2,5-dimethylpyridin-4-yl)-2-[1-(4-ethoxy-2,6-difluorobenzyl)-1H-indazol-3-yl]-5-[4-(3-fluoroazetidin-1-yl)butoxy]pyrimidin-4-amine] | 33 nM |  |  |  | 1400 nM | 39 nM
CCOc1cc(F)c(Cn2nc(-c3ncc(OCCCCN4CC(F)(F)C4)c(Nc4ccnc(C)n4)n3)c3ccccc32)c(F)c1 [Example 2-3-2, 5-[4-(3,3-difluoroazetidin-1-yl)butoxy]-2-[1-(4-ethoxy-2,6-difluorobenzyl)-1H-indazol-3-yl]-N-(2-methylpyrimidin-4-yl)pyrimidin-4-amine] | 26 nM |  |  |  | 9300 nM | 34 nM
CCOc1cc(F)c(Cn2nc(-c3ncc(OCCCCN4CC(F)C4)c(Nc4ccnc(C)n4)n3)c3ccccc32)c(F)c1 [Example 2-3-3, 2-[1-(4-ethoxy-2,6-difluorobenzyl)-1H-indazol-3-yl]-5-[4-(3-fluoroazetidin-1-yl)butoxy]-N-(2-methylpyrimidin-4-yl)pyrimidin-4-amine] | 23 nM |  |  |  | 3700 nM | 12 nM
CCOc1cc(F)c(Cn2nc(-c3ncc(OCCCCN4CCC(F)(F)CC4)c(Nc4ccnc(C)n4)n3)c3ccccc32)c(F)c1 [Example 2-3-4, 5-[4-(4,4-difluoropiperidin-1-yl)butoxy]-2-[1-(4-ethoxy-2,6-difluorobenzyl)-1H-indazol-3-yl]-N-(2-methylpyrimidin-4-yl)pyrimidin-4-amine] | 51 nM |  |  |  | > 10000 nM | 49 nM
CCOc1cc(F)c(Cn2nc(-c3ncc(OCCCCN4CCC(F)(F)CC4)c(Nc4cc(C)ncc4C)n3)c3ccccc32)c(F)c1 [Example 2-3-5, 5-[4-(4,4-difluoropiperidin-1-yl)butoxy]-N-(2,5-dimethylpyridin-4-yl)-2-[1-(4-ethoxy-2,6-difluorobenzyl)-1H-indazol-3-yl]pyrimidin-4-amine] | 31 nM |  |  |  | 6800 nM | 230 nM

Further lines, with some results ahead:

IC50 [1] | IC50 [2, 4] | IC50 [3, 5] | IC50 ([2]; read-out: Biological Assay 2: Proliferation assay (HeLa cell line) median IC50, 4 days incubation, crystal violet) | Compound | IC50 [2, 6] | IC50 [3]
860 nM | 1100 nM | 9.6 nM |  | CCOc1cc(F)c(Cn2nc(-c3ncc(OCCCN4CCN(C)CC4)c(Nc4ccncn4)n3)c3ccccc32)c(F)c1 [Example 2-1-6, 2-[1-(4-ethoxy-2,6-difluorobenzyl)-1H-indazol-3-yl]-5-[3-(4-methylpiperazin-1-yl)propoxy]-N-(pyrimidin-4-yl)pyrimidin-4-amine] |  | 
430 nM | 3700 nM | 12 nM |  | CCOc1cc(F)c(Cn2nc(-c3ncc(OCCCN4CCN(C)CC4)c(Nc4ccnc(C)n4)n3)c3ccccc32)c(F)c1 [Example 2-1-7, 2-[1-(4-ethoxy-2,6-difluorobenzyl)-1H-indazol-3-yl]-5-[3-(4-methylpiperazin-1-yl)propoxy]-N-(2-methylpyrimidin-4-yl)pyrimidin-4-amine] |  | 
370 nM | 1200 nM | 28 nM |  | CCOc1cc(F)c(Cn2nc(-c3ncc(OCCCN4CCN(C)CC4)c(Nc4ccnc(C)c4)n3)c3ccccc32)c(F)c1 [Example 2-1-8, 2-[1-(4-ethoxy-2,6-difluorobenzyl)-1H-indazol-3-yl]-5-[3-(4-methylpiperazin-1-yl)propoxy]-N-(2-methylpyridin-4-yl)pyrimidin-4-amine] |  | 
490 nM | 3700 nM | 19 nM |  | Fc1cc(OCC(F)F)cc(F)c1Cn1nc(-c2ncc(OCCCN3CCOCC3)c(Nc3ccncn3)n2)c2ccccc21 [Example 2-1-9, 2-{1-[4-(2,2-difluoroethoxy)-2,6-difluorobenzyl]-1H-indazol-3-yl}-5-[3-(morpholin-4-yl)propoxy]-N-(pyrimidin-4-yl)pyrimidin-4-amine] |  | 
160 nM | 550 nM | 250 nM |  | CCOc1cc(F)c(Cn2nc(-c3ncc(OCCCN4CCN(C)CC4)c(Nc4cc(C)ncc4C)n3)c3ccccc32)c(F)c1 [Example 2-1-10, N-(2,5-dimethylpyridin-4-yl)-2-[1-(4-ethoxy-2,6-difluorobenzyl)-1H-indazol-3-yl]-5-[3-(4-methylpiperazin-1-yl)propoxy]pyrimidin-4-amine] |  | 
 |  | 370 nM |  | Cc1cc(Nc2nc(-c3nn(Cc4c(F)cc(OCC5CC5)cc4F)c4ccccc34)ncc2OCCCN2CCOCC2)ccn1 [Example 2-1-11, 2-{1-[4-(cyclopropylmethoxy)-2,6-difluorobenzyl]-1H-indazol-3-yl}-N-(2-methylpyridin-4-yl)-5-[3-(morpholin-4-yl)propoxy]pyrimidin-4-amine] |  | 
140 nM |  |  |  | CCOc1cc(F)c(Cn2nc(-c3ncc(OC[C@H](C)NCC(F)(F)F)c(Nc4ccnc(C)n4)n3)c3ccccc32)c(F)c1 [Example 2-4-1, 2-[1-(4-ethoxy-2,6-difluorobenzyl)-1H-indazol-3-yl]-N-(2-methylpyrimidin-4-yl)-5-({(2S)-2-[(2,2,2-trifluoroethyl)amino]propyl}oxy)pyrimidin-4-amine] | 880 nM | 11 nM
260 nM |  |  | > 10000 nM | CCOc1cc(F)c(Cn2nc(-c3ncc(OCCN4CCOCC4)c(Nc4ccncc4)n3)c3ccccc32)c(F)c1 [Example 3-1-1, 2-[1-(4-ethoxy-2,6-difluorobenzyl)-1H-indazol-3-yl]-5-[2-(morpholin-4-yl)ethoxy]-N-(pyridin-4-yl)pyrimidin-4-amine, reference compound] | 9000 nM | 
